Test results as given in patent publication US4774381A, “Herbicide resistant tobacco” (E. I. Du Pont de Nemours and Company, priority 1985, dated 1988).

How the values were obtained:
[1] = tested on: Isolate 16 (S4/S4) cell line; experiment: Callus growth test; assay type: cell-based, Nicotiana tabacum
Experimental: (§1) Callus growth tests were conducted substantially according to the following procedure. Approximately 50 mg callus tissue, grown on non-selective media, was spread over 7 cm diameter paper filter discs (Whatman No. 1), which were placed on the medium surface of petri dishes containing C1 agar media and varying concentrations of chlorsulfuron. The resulting cultures were incubated for 14 days at 25±1°, under fluorescent lamps programmed to provide a 16-hour photoperiod per day. At the conclusion of the incubation period, tissue was scraped from each filter disc and weighed. The final fresh weights were recorded, and means and standard errors of the means determined for all cases. The significance of differences between responses of individual cell lines to various concentrations of chlorsulfuron was determined at a probability level of 5% by a t-test for populations having different standard deviations, as described by Snedecor, et al., Statistical Methods (Iowa State University Press, Ames, Iowa, (1967), pp. 114-116).
(§2) The isolates tested were established from plants produced by self-fertilization of a S4/+ heterozygote produced by two successive backcrosses of a regenerated mutant plant to normal plants. In addition, growth responses were determined for cell cultures initiated from two individuals of the same genotype with respect to the S4 mutation. The genotypes of these cell lines were confirmed by progeny analyses of the plants from which they were derived. These precautions were intended to eliminate background variability which might otherwise obscure the effects of the resistance mutation.

[2] = tested on: Isolate 30 (S4/S4) cell line; experiment: Callus growth test; assay type: cell-based, Nicotiana tabacum; details: 14 days
Experimental: as §1, §2

[3] = tested on: Isolate 1 (+/+) cell line; experiment: Callus growth test; assay type: cell-based, Nicotiana tabacum
Experimental: as §1, §2

[4] = target: T1, acetolactate synthase (ALS), H1 extract (Nicotiana tabacum, UniProt P09114); experiment: ALS activity assay in cell extracts; assay type: biochemical
T1 construct: ALS activity was then assayed in extracts prepared from these cell suspension cultures; endogenous in cells; host or cells: N. tabacum cv; Xanthi cell suspension cultures (H1 parental haploid line; +/+ segregants), 0-50% ammonium sulfate fraction of the extract
T1 sequence (P09114 92-664): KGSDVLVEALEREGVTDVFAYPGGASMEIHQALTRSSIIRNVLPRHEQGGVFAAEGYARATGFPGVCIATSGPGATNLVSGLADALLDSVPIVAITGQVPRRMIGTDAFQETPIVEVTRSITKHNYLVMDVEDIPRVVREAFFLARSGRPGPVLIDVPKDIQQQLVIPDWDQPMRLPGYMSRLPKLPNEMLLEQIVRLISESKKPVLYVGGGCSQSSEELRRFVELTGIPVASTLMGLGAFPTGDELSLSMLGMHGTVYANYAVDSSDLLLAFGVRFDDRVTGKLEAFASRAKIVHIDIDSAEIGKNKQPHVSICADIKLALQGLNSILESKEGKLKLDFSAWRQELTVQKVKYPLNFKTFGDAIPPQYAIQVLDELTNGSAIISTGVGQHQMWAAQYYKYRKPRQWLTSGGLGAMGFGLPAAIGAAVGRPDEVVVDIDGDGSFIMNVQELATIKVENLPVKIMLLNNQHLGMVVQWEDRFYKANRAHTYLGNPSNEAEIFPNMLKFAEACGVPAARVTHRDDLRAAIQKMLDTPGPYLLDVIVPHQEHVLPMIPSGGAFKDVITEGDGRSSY
Experimental: Cell suspension cultures of normal (H1) and homozygous mutant (Isolate 16) cell lines were washed in C1 liquid medium. After washing, cells were extracted in a 100 mM potassium phosphate buffer (pH 7.5) containing 0.5 mM MgCl2, 1 mM sodium pyruvate, 0.5 mM thiamine pyrophosphate, 10 micromolar flavine-adenine dinucleotide (FAD) and 10 percent (by volume) glycerol. Polyclar AT (BDH Chemicals Ltd) was added to a final concentration of 250 mg per gram fresh weight of tissue. After centrifugation at 27,000xg for 15 minutes at 4°, an equal volume of a saturated solution of amminium sulfate was added to the supernatant fraction. The resultant precipitate (representing a 0 to 50 percent ammonium sulfate fraction) was redissolved in 100 mM potassium phosphate buffer (pH 7.5) containing 0.5 mM MgCl2, 1 mM sodium pyruvate, and salts were removed by passage through a Sephadex G-25 (Pharmacia PD-10) column.
ALS activity was assayed in a total volume of 500 microliters containing 100 microliters of the column eluate, 65 mM potassium phosphate buffer (pH 7.5) containing 10 mM MgCl2, 40 mM sodium pyruvate, 250 micromolar thiamine pyrophosphate, 23 micromolar FAD, and 1, 5, 10, 50, 100, 500 or 1000 ppb chlorsulfuron or sulfometuron-methyl. After incubation at 30° for 90 minutes, 250 microliters of 6N H2 SO4 was added to each assay tube, and the tubes were incubated at 55° for 10 minutes to terminate the enzymatic reaction and achieve complete conversion of acetolactate to acetoin. Acetoin content was then measured by a modification of the procedure described by Westerfield, J. Biol. Chem. 161:495 (1945). To each tube was added sequentially 100 microliters 50 percent NaOH, 150 microliters 0.5 percent creatine, and 150 microliters 5 percent alpha-napthol (in 2.5N NaOH). Color development was accelerated by incubation at 55° for 10 minutes. Tubes were then centrifuged, and the optical density was read at 530 nm. Background optical densities, which were subtracted from the optical density values of the reactions, were determined for each extract from parallel assays to which the enzyme extract was added after the addition of 6N H2 SO4. Protein concentrations were measured with Bio-Rad Protein Assay reagent with bovine serum albumin as a standard. Data points and specific activities, which are set forth below and in FIG. 2, represent the average values of at least three independent determinations. ALS activities are presented in FIG. 2 as percent activity in the absence of herbicide.

[5] = Nicotiana tabacum, 336 h, chlorsulfuron 1.0 ppb, 14 days, read-out: % of fresh weight at 0 ppb
[6] = Nicotiana tabacum, 336 h, chlorsulfuron 3.0 ppb, 14 days, read-out: % of fresh weight at 0 ppb

Compound: COc1nc(C)nc(NC(=O)NS(=O)(=O)c2ccccc2Cl)n1 [Chlorsulfuron, chlorsulfuron]
- activity at 0.001 µg/mL [1, 5]: 95.8%
- activity at 0.003 µg/mL [1, 6]: 90%
- activity at 0.01 µg/mL ([1]; Nicotiana tabacum, 336 h, chlorsulfuron 10.0 ppb, 14 days, read-out: % of fresh weight at 0 ppb): 95.5%
- activity at 0.03 µg/mL ([1]; Nicotiana tabacum, 336 h, chlorsulfuron 30.0 ppb, 14 days, read-out: % of fresh weight at 0 ppb): 79.9%
- significance of growth inhibition (t-test, 5%) ([1]; both homozygous mutant lines (Isolates 16 and 30), concentrations below 30 ppb): neither homozygous mutant cell was significantly inhibited
- Fr. Wt. ([1]; chlorsulfuron 0.1 ppb, 14 days): 3755 ± 259 mg
- Fr. Wt. ([1]; chlorsulfuron 0.3 ppb, 14 days): 3778 ± 219 mg
- Fr. Wt. ([1]; chlorsulfuron 1.0 ppb, 14 days): 3148 ± 196 mg
- Fr. Wt. ([1]; chlorsulfuron 3.0 ppb, 14 days): 2958 ± 161 mg
- Fr. Wt. ([1]; chlorsulfuron 10.0 ppb, 14 days): 3171 ± 260 mg
- Fr. Wt. ([1]; chlorsulfuron 30.0 ppb, 14 days): 2625 ± 202 mg
- increase of tolerance of cultured cells by S4 mutation ([1]; homozygous lines at 30 ppb versus Isolate 7 at 0.3 ppb): at least 100 fold
- activity at 0.001 µg/mL ([2]; Nicotiana tabacum, 336 h, chlorsulfuron 1.0 ppb, read-out: % of fresh weight at 0 ppb): 98.4%
- activity at 0.03 µg/mL ([2]; Nicotiana tabacum, 336 h, chlorsulfuron 30.0 ppb, read-out: % of fresh weight at 0 ppb): 90.3%
- Fr. Wt. ([2]; chlorsulfuron 0.1 ppb): 3235 ± 159 mg
- Fr. Wt. ([2]; chlorsulfuron 0.3 ppb): 3157 ± 76 mg
- Fr. Wt. ([2]; chlorsulfuron 1.0 ppb): 2707 ± 250 mg
- Fr. Wt. ([2]; chlorsulfuron 3.0 ppb): 3287 ± 136 mg
- Fr. Wt. ([2]; chlorsulfuron 10.0 ppb): 2975 ± 139 mg
- Fr. Wt. ([2]; chlorsulfuron 30.0 ppb): 2486 ± 170 mg
- significance of growth inhibition (t-test, 5%) ([3]; 0.1 ppb chlorsulfuron): significantly inhibited
- activity at 0.0001 µg/mL ([3]; Nicotiana tabacum, 336 h, chlorsulfuron 0.1 ppb, 14 days, read-out: % of fresh weight at 0 ppb): 76.7%
- activity at 0.0003 µg/mL ([3]; Nicotiana tabacum, 336 h, chlorsulfuron 0.3 ppb, 14 days, read-out: % of fresh weight at 0 ppb): 40.4%
- activity at 0.001 µg/mL [3, 5]: 3.6%
- activity at 0.003 µg/mL [3, 6]: 1.8%
- Fr. Wt. ([3]; chlorsulfuron 0.1 ppb, 14 days): 2287 ± 198 mg
- Fr. Wt. ([3]; chlorsulfuron 0.3 ppb, 14 days): 1204 ± 107 mg
- Fr. Wt. ([3]; chlorsulfuron 1.0 ppb, 14 days): 106 ± 9 mg
- Fr. Wt. ([3]; chlorsulfuron 3.0 ppb, 14 days): 55 ± 3 mg
- remaining ALS activity (% of uninhibited) at 0.01 ppm ([4]; 10 ppb, Isolate H1 (+), read-out: Uninhibited activity (%) in the Presence of Chlorsulfuron): 40%
- remaining ALS activity (% of uninhibited) at 0.03 ppm ([4]; 30 ppb, Isolate H1 (+), read-out: Uninhibited activity (%) in the Presence of Chlorsulfuron): 23%
- remaining ALS activity (% of uninhibited) at 0.1 ppm ([4]; 100 ppb, Isolate H1 (+), read-out: Uninhibited activity (%) in the Presence of Chlorsulfuron): 18%
- IC50 ([4]; H1 cell line extract, read-out: concentration inhibiting ALS activity 50 percent (converted)): ~14 nM
